# Laboratory results: US6737383B1, “Herbicidal oxadiazolidines” (priority 1999, dated 2004)
# Tests used:
# crabgrass = assay: Test B pre/postemergence crabgrass; format: in vivo, Digitaria sanguinalis
# Outline: (§1)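 Herbicidal effect was estimated by eye on a ten-point control scale after plants spent twelve to sixteen days in a greenhouse following soil or foliar treatment. Foliar sprays targeted plants at one to four leaves; all doses were formulated in a non-phytotoxic solvent with surfactant.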
# morningglory = assay: Test B pre/postemergence morningglory; format: in vivo, Ipomoea hederacea
# Outline: as §1
# rice = assay: Test B flood test rice; format: in vivo, Oryza sativa
# Outline: (§2)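 Read-out is a visual response score from 0 (no effect) to 10 (complete control), assigned by comparison with untreated controls. Treatment was applied at the 2-leaf stage, and plants stayed in the greenhouse for twelve to sixteen days before scoring.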
# cocklebur = assay: Test B pre/postemergence cocklebur; format: in vivo, Xanthium strumarium
# Outline: as §1
# bamyardgrass = assay: Test B flood test barnyardgrass; format: in vivo, Echinochloa crus-galli
# Outline: as §2
# purple nutsedge = assay: Test B pre/postemergence purple nutsedge; format: in vivo, Cyperus rotundus
# Outline: as §1
# soybean = assay: Test B pre/postemergence soybean; format: in vivo, Glycine max
# Outline: as §1
# sugar beet = assay: Test B pre/postemergence sugar beet; format: in vivo, Beta vulgaris
# Outline: as §1
# giant foxtail = assay: Test B pre/postemergence giant foxtail; format: in vivo, Setaria faberii
# Outline: as §1
# duck salad = assay: Test B flood test duck salad; format: in vivo, Heteranthera limosa
# Outline: as §2
# velvetleaf = assay: Test B pre/postemergence velvetleaf; format: in vivo, Abutilon theophrasti
# Outline: as §1
# corn = assay: Test B pre/postemergence corn; format: in vivo, Zea mays
# Outline: as §1
# bedstraw = assay: Test B pre/postemergence bedstraw; format: in vivo, Galium aparine
# Outline: as §1
# blackgrass = assay: Test B pre/postemergence blackgrass; format: in vivo, Alopecurus myosuroides
# Outline: as §1
# surinam grass = assay: Test B pre/postemergence surinam grass; format: in vivo, Brachiaria decumbens
# Outline: as §1
# wild oat = assay: Test B pre/postemergence wild oat; format: in vivo, Avena fatua
# Outline: as §1
# wheat = assay: Test B pre/postemergence wheat; format: in vivo, Triticum aestivum
# Outline: as §1
# rape = assay: Test B pre/postemergence rape; format: in vivo, Brassica napus
# Outline: as §1
# pigweed = assay: Test B pre/postemergence pigweed; format: in vivo, Amaranthus retroflexus
# Outline: as §1
# smallflower flatsedge = assay: Test B flood test smallflower flatsedge; format: in vivo, Cyperus difformis
# Outline: as §2
# [1] = Postemergence, Rate 31 g/ha, visual rating, scale 0 to 10 (0 no effect, 10 complete control)
# [2] = Postemergence, Rate 62 g/ha, scale 0 to 10, 0 is no effect, 10 is complete control
# [3] = Postemergence, Rate 125 g/ha, scale of 0 to 10 where 0 is no effect and 10 is complete control
# [4] = Preemergence, Rate 31 g/ha, visual rating, scale 0 to 10 (0 no effect, 10 complete control)
# [5] = Preemergence, Rate 62 g/ha, scale 0 to 10 (0 no effect, 10 complete control)
# [6] = Preemergence, Rate 125 g/ha, scale of 0 to 10 where 0 is no effect and 10 is complete control
# [7] = Preemergence, Rate 250 g/ha, scale 0 to 10 (0 no effect, 10 complete control)
# [8] = Rate 31 g/ha, Pre-emergence section (flood test species), scale 0 to 10
# [9] = Rate 62 g/ha, flood test species, Pre-emergence, visual evaluation after twelve to sixteen days
# [10] = Rate 125 g/ha, under heading Pre-emergence, flood test species, visual evaluation after twelve to sixteen days
# [11] = Rate 250 g/ha, Pre-emergence (flood test species), scale 0 to 10, 0 is no effect, 10 is complete control
smiles,measurement,setting,value
CCOC(=O)CC(C(=O)OCC)n1c(=O)on(C(=O)N(c2ccccc2)C(C)C)c1=O (stereo not shown) [Compound 614],Crabgrass plant response rating,crabgrass; [1],0
same,"Plant response rating, Crabgrass",crabgrass; [2],0
same,"Plant response rating, Crabgrass",crabgrass; [3],1
same,Crabgrass plant response rating,crabgrass; [4],0
same,Crabgrass plant response rating,crabgrass; [5],0
same,Crabgrass plant response rating,crabgrass; [6],6
same,"Plant response rating, Crabgrass",crabgrass; [7],8
same,Morningglory plant response rating,morningglory; [1],0
same,"Plant response rating, Morningglory",morningglory; [2],2
same,"Plant response rating, Morningglory",morningglory; [3],2
same,Morningglory plant response rating,morningglory; [5],0
same,Morningglory plant response rating,morningglory; [6],0
same,"Plant response rating, Morningglory",morningglory; [7],0
same,Rice plant response rating,rice; [8],0
same,"Plant response rating, Rice (0 to 10 scale, 0 is no effect, 10 is complete control)",rice; [9],0
same,"Rice plant response rating (0 to 10 scale, 0 is no effect, 10 is complete control)",rice; [10],0
same,Rice plant response rating,rice; [11],0
same,Cocklebur plant response rating,cocklebur; [1],0
same,"Plant response rating, Cocklebur",cocklebur; [2],0
same,"Plant response rating, Cocklebur",cocklebur; [3],0
same,Cocklebur plant response rating,cocklebur; [4],0
same,Cocklebur plant response rating,cocklebur; [5],0
same,Cocklebur plant response rating,cocklebur; [6],0
same,"Plant response rating, Cocklebur",cocklebur; [7],0
same,Barnyardgrass plant response rating,bamyardgrass; [8],0
same,"Plant response rating, Barnyardgrass (0 to 10 scale, 0 is no effect, 10 is complete control)",bamyardgrass; [9],0
same,"Barnyardgrass plant response rating (0 to 10 scale, 0 is no effect, 10 is complete control)",bamyardgrass; [10],0
same,Barnyardgrass plant response rating,bamyardgrass; [11],0
same,Nutsedge plant response rating,purple nutsedge; [1],0
same,"Plant response rating, Nutsedge",purple nutsedge; [2],0
same,"Plant response rating, Nutsedge",purple nutsedge; [3],0
same,Nutsedge plant response rating,purple nutsedge; [6],0
same,"Plant response rating, Nutsedge",purple nutsedge; [7],0
same,Soybean plant response rating,soybean; [1],2
same,"Plant response rating, Soybean",soybean; [2],3
same,"Plant response rating, Soybean",soybean; [3],3
same,Soybean plant response rating,soybean; [5],0
same,Soybean plant response rating,soybean; [6],0
same,"Plant response rating, Soybean",soybean; [7],0
same,Sugarbeets plant response rating,sugar beet; [1],0
same,"Plant response rating, Sugarbeets",sugar beet; [2],0
same,"Plant response rating, Sugarbeets",sugar beet; [3],0
same,Sugarbeets plant response rating,sugar beet; [5],0
same,Sugarbeets plant response rating,sugar beet; [6],0
same,"Plant response rating, Sugarbeets",sugar beet; [7],0
same,Giant foxtail plant response rating,giant foxtail; [1],0
same,"Plant response rating, Giant foxtail",giant foxtail; [2],0
same,"Plant response rating, Giant foxtail",giant foxtail; [3],0
same,Giant foxtail plant response rating,giant foxtail; [4],0
same,Giant foxtail plant response rating,giant foxtail; [5],0
same,Giant foxtail plant response rating,giant foxtail; [6],4
same,"Plant response rating, Giant foxtail",giant foxtail; [7],9
same,Ducksalad plant response rating,duck salad; [8],0
same,"Plant response rating, Ducksalad (0 to 10 scale, 0 is no effect, 10 is complete control)",duck salad; [9],0
same,"Ducksalad plant response rating (0 to 10 scale, 0 is no effect, 10 is complete control)",duck salad; [10],0
same,Ducksalad plant response rating,duck salad; [11],0
same,Velvetleaf plant response rating,velvetleaf; [1],0
same,"Plant response rating, Velvetleaf",velvetleaf; [2],0
same,"Plant response rating, Velvetleaf",velvetleaf; [3],0
same,Velvetleaf plant response rating,velvetleaf; [5],0
same,Velvetleaf plant response rating,velvetleaf; [6],0
same,"Plant response rating, Velvetleaf",velvetleaf; [7],0
same,Corn plant response rating,corn; [1],0
same,"Plant response rating, Corn",corn; [2],0
same,"Plant response rating, Corn",corn; [3],0
same,Corn plant response rating,corn; [4],0
same,Corn plant response rating,corn; [5],0
same,Corn plant response rating,corn; [6],0
same,"Plant response rating, Corn",corn; [7],0
same,"Plant response rating, Bedstraw",bedstraw; [3],0
same,Bedstraw plant response rating,bedstraw; [4],0
same,Bedstraw plant response rating,bedstraw; [5],0
same,"Plant response rating, Bedstraw",bedstraw; [7],0
same,Blackgrass plant response rating,blackgrass; [1],0
same,"Plant response rating, Blackgrass",blackgrass; [2],0
same,"Plant response rating, Blackgrass",blackgrass; [3],0
same,Blackgrass plant response rating,blackgrass; [4],0
same,Blackgrass plant response rating,blackgrass; [5],0
same,Blackgrass plant response rating,blackgrass; [6],0
same,"Plant response rating, Blackgrass",blackgrass; [7],3
same,B. signalgrass plant response rating,surinam grass; [1],0
same,"Plant response rating, B. signalgrass",surinam grass; [2],0
same,"Plant response rating, B. signalgrass",surinam grass; [3],0
same,B. signalgrass plant response rating,surinam grass; [4],0
same,B. signalgrass plant response rating,surinam grass; [5],0
same,B. signalgrass plant response rating,surinam grass; [6],0
same,"Plant response rating, B. signalgrass",surinam grass; [7],0
same,Wild oats plant response rating,wild oat; [1],0
same,"Plant response rating, Wild oats",wild oat; [2],0
same,"Plant response rating, Wild oats",wild oat; [3],0
same,Wild oats plant response rating,wild oat; [5],0
same,Wild oats plant response rating,wild oat; [6],0
same,"Plant response rating, Wild oats",wild oat; [7],0
same,Wheat plant response rating,wheat; [1],0
same,"Plant response rating, Wheat",wheat; [2],0
same,"Plant response rating, Wheat",wheat; [3],0
same,Wheat plant response rating,wheat; [5],0
same,Wheat plant response rating,wheat; [6],0
same,"Plant response rating, Wheat",wheat; [7],0
same,Rape plant response rating,rape; [1],0
same,"Plant response rating, Rape",rape; [2],0
same,"Plant response rating, Rape",rape; [3],0
same,Rape plant response rating,rape; [5],0
same,Rape plant response rating,rape; [6],0
same,"Plant response rating, Rape",rape; [7],0
same,Redroot pigweed plant response rating,pigweed; [1],0
same,"Plant response rating, Redroot pigweed",pigweed; [2],0
same,"Plant response rating, Redroot pigweed",pigweed; [3],0
same,Redroot pigweed plant response rating,pigweed; [5],0
same,Redroot pigweed plant response rating,pigweed; [6],0
same,"Plant response rating, Redroot pigweed",pigweed; [7],0
same,S. Flatsedge plant response rating,smallflower flatsedge; [8],0
same,"Plant response rating, S. Flatsedge (0 to 10 scale, 0 is no effect, 10 is complete control)",smallflower flatsedge; [9],0
same,"S. Flatsedge plant response rating (0 to 10 scale, 0 is no effect, 10 is complete control)",smallflower flatsedge; [10],0
same,S. Flatsedge plant response rating,smallflower flatsedge; [11],0
